The target of series [1] is T1, von Hippel-Lindau disease tumor suppressor/Tyrosine-protein kinase ABL1/Breakpoint cluster region protein (Homo sapiens, UniProt P00519+P11274+P40337). Description: Protac activity against VHL/BCR-ABL in human K562 cells assessed as induction of BCR-ABL degradation by Western blot analysis. The format is cell-based.
Series [2] has as its target Bcr/Abl fusion protein (Homo sapiens) (UniProt P00519+P11274). Description: Inhibition of BCR-ABL phosphorylation in human KU812 cells at 1 to 30 nM by Western blot analysis. The class given is cell-based.
Another series relates to U-937. In words: Growth inhibition of human U937 cells incubated for 2 days by CCK8 assay. The format is functional, cell-based.
The subject of series [3] is K562. Description: Effect on BCR-ABL protein levels in human K562 cells at 100 nM up to 24 hrs by Western blot analysis. The class given is ADME, cell-based. Particulars: k562, 24 h, 0.1 µM.
In series [4] the target is T1, von Hippel-Lindau disease tumor suppressor/Tyrosine-protein kinase ABL1/Breakpoint cluster region protein. Description: Protac activity against VHL/BCR-ABL in human K562 cells assessed as induction of BCR-ABL degradation pre-treated with 100 nM dasatinib for 2 hrs followed by compound addition at 100 nM and further incubated for 8 hrs by Western blot analysis. The format is cell-based.
Target sequence in this assay (P00519 whole entry, looked up, the tested form may be a part): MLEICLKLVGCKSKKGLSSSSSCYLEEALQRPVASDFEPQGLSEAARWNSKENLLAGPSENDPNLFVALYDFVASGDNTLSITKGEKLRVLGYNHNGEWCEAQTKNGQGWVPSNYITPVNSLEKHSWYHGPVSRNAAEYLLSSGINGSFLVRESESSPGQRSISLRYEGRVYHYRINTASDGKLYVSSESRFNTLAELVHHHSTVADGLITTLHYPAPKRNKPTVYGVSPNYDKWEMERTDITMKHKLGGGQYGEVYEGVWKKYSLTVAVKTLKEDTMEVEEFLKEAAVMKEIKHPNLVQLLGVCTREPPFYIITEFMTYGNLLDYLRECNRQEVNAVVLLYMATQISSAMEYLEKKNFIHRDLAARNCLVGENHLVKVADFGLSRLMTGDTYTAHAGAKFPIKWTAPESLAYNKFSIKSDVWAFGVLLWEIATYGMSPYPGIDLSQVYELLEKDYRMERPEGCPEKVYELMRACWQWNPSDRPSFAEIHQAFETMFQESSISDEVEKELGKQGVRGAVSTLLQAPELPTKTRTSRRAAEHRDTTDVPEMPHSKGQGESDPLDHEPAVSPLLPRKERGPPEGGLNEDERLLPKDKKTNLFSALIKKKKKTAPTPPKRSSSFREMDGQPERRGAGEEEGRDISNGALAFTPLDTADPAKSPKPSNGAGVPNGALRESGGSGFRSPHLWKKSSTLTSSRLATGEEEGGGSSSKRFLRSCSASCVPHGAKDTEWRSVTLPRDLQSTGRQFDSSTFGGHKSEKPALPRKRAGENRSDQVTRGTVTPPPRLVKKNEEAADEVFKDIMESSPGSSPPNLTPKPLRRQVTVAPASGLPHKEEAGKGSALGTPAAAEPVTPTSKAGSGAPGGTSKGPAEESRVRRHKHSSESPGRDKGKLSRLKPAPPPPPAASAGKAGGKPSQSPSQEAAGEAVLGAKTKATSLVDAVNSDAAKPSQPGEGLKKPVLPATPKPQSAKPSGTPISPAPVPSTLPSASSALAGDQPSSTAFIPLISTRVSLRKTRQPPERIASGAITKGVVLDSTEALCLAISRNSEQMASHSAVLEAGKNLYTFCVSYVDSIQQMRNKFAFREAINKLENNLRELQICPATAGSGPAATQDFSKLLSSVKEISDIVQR
Target sequence in this assay (P11274 whole entry, looked up, the tested form may be a part): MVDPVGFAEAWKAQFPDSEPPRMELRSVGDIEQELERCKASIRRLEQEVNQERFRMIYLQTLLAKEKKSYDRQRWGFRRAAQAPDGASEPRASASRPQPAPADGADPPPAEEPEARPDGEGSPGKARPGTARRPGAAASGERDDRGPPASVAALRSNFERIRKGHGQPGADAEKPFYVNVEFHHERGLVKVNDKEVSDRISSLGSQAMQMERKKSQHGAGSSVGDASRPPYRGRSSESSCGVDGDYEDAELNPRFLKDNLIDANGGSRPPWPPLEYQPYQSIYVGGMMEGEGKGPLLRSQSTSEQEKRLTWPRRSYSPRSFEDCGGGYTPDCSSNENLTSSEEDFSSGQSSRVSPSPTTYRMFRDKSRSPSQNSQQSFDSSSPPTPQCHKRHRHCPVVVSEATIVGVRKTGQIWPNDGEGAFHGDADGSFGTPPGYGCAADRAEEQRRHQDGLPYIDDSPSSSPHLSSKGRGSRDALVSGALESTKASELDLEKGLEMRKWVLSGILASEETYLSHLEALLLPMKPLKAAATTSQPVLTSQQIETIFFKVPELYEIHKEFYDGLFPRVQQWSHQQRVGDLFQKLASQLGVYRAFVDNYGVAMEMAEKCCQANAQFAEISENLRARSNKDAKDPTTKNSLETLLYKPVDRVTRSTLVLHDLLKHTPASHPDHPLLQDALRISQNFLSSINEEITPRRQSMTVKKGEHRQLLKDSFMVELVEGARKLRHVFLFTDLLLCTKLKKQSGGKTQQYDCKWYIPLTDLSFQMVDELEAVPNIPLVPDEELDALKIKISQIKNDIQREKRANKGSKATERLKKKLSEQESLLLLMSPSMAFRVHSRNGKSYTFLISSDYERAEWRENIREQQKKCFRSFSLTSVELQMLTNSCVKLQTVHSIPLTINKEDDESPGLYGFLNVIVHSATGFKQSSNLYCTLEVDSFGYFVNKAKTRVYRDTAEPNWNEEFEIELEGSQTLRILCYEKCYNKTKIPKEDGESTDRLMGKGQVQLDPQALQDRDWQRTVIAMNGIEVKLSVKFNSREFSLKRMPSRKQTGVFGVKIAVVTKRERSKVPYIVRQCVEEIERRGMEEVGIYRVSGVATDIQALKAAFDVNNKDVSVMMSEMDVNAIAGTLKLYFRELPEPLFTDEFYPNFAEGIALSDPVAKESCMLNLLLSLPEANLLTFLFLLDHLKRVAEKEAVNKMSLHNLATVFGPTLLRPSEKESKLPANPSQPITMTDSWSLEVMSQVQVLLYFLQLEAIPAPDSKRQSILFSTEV
Target sequence in this assay (P40337 whole entry, looked up, the tested form may be a part): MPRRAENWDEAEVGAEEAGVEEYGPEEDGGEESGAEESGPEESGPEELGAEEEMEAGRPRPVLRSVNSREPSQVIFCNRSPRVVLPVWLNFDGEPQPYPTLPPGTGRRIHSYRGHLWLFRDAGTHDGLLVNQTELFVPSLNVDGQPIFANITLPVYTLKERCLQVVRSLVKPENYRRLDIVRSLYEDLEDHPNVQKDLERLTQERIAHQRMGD

Series [5] has the same target. Description: Protac activity against VHL/BCR-ABL in human K562 cells assessed as induction of BCR-ABL degradation pre-treated with 2.5 uM proteasome inhibitor MG132 for 2 hrs followed by compound addition at 100 nM and further incubated for 8 hrs by Western blot analysis. The format is cell-based.
Target sequence in this assay (P00519 whole entry, looked up, the tested form may be a part): as the sequence (P00519 whole entry, looked up, the tested form may be a part) above
Target sequence in this assay (P11274 whole entry, looked up, the tested form may be a part): as the sequence (P11274 whole entry, looked up, the tested form may be a part) above
Target sequence in this assay (P40337 whole entry, looked up, the tested form may be a part): as the sequence (P40337 whole entry, looked up, the tested form may be a part) above
For series [6] the target is unchanged. In words: Protac activity against VHL/BCR-ABL in human K562 cell lysates assessed as induction of pull down of endogenous ABL at 10 to 100 nM in presence of excess immobilized GST-VBC bait by GST-pull down assay. The class given is subcellular. Particulars: Lysate.
Target sequence in this assay (P00519 whole entry, looked up, the tested form may be a part): as the sequence (P00519 whole entry, looked up, the tested form may be a part) above
Target sequence in this assay (P11274 whole entry, looked up, the tested form may be a part): as the sequence (P11274 whole entry, looked up, the tested form may be a part) above
Target sequence in this assay (P40337 whole entry, looked up, the tested form may be a part): as the sequence (P40337 whole entry, looked up, the tested form may be a part) above
The target is the same in series [7]. Description: Induction of ternary complex formation between VHL and BCR-ABL (unknown origin) expressed in HEK293 cells expressing N-terminal BCR-ABL LgBit fusion protein and N-terminal SmBit-VHL fusion protein incubated for 1 hr by NanoBit technology based luciferase complementation assay. The class given is cell-based.
Target sequence in this assay (P00519 whole entry, looked up, the tested form may be a part): as the sequence (P00519 whole entry, looked up, the tested form may be a part) above
Target sequence in this assay (P11274 whole entry, looked up, the tested form may be a part): as the sequence (P11274 whole entry, looked up, the tested form may be a part) above
Target sequence in this assay (P40337 whole entry, looked up, the tested form may be a part): as the sequence (P40337 whole entry, looked up, the tested form may be a part) above
For series [8] the target is unchanged. Description: Protac activity against VHL/BCR-ABL in human K562 cells assessed as reduction in BCR-ABL protein levels at 1 to 100 nM incubated for 16 hrs by Western blot analysis. The format is cell-based.
Target sequence in this assay (P00519 whole entry, looked up, the tested form may be a part): as the sequence (P00519 whole entry, looked up, the tested form may be a part) above
Target sequence in this assay (P11274 whole entry, looked up, the tested form may be a part): as the sequence (P11274 whole entry, looked up, the tested form may be a part) above
Target sequence in this assay (P40337 whole entry, looked up, the tested form may be a part): as the sequence (P40337 whole entry, looked up, the tested form may be a part) above
The target in series [9] is von Hippel-Lindau disease tumor suppressor/Tyrosine-protein kinase ABL1 (Homo sapiens) (UniProt P00519+P40337). In words: Protac activity against VHL/c-ABL in human K562 cells assessed as reduction in c-ABL protein levels at 1 to 100 nM incubated for 16 hrs by Western blot analysis. The class given is cell-based.
Series [10] addresses von Hippel-Lindau disease tumor suppressor/Ephrin type-B receptor 4 (Homo sapiens) (UniProt P54760+P40337). Description: Protac activity against VHL/EPHB4 in human K562 cells assessed as reduction in EPHB4 protein levels at 1 to 100 nM incubated for 16 hrs by Western blot analysis. The class given is cell-based.
Series [11] deals with von Hippel-Lindau disease tumor suppressor/Receptor-interacting serine/threonine-protein kinase 2 (Homo sapiens) (UniProt O43353+P40337). In words: Protac activity against VHL/RIPK2 in human K562 cells assessed as reduction in RIPK2 protein levels at 1 to 100 nM incubated for 16 hrs by Western blot analysis. The class given is cell-based.
von Hippel-Lindau disease tumor suppressor/Receptor-interacting serine/threonine-protein kinase 2 (Homo sapiens), sequence (O43353 whole entry, looked up): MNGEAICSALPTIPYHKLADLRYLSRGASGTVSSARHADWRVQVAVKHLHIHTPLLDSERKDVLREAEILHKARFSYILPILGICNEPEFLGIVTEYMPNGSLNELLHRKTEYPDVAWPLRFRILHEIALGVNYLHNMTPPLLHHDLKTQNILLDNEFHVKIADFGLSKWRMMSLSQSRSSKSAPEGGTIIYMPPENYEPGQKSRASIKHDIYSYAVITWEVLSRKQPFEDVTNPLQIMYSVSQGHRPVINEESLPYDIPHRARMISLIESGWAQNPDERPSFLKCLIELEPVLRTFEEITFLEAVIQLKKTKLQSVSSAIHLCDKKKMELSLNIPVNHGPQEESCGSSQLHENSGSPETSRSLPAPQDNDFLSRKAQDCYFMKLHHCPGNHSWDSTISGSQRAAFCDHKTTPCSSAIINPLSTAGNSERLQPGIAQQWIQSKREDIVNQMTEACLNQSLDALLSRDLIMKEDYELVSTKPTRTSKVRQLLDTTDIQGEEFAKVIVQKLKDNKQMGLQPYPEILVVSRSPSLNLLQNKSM
von Hippel-Lindau disease tumor suppressor/Receptor-interacting serine/threonine-protein kinase 2 (Homo sapiens), sequence (P40337 whole entry, looked up): as the sequence (P40337 whole entry, looked up, the tested form may be a part) above
For series [12], the target named is von Hippel-Lindau disease tumor suppressor/Platelet-derived growth factor receptor beta (Homo sapiens) (UniProt P09619+P40337). In words: Protac activity against VHL/PDGFRbeta in human K562 cells assessed as reduction in PDGFRbeta protein levels at 1 to 100 nM incubated for 16 hrs by Western blot analysis. The class given is cell-based.
The target of series [13] is von Hippel-Lindau disease tumor suppressor/Tyrosine-protein kinase Lck (Homo sapiens) (UniProt P06239+P40337). In words: Protac activity against VHL/LCK in human K562 cells assessed as reduction in Lck protein levels at 1 to 100 nM incubated for 16 hrs by Western blot analysis. The format is cell-based.
von Hippel-Lindau disease tumor suppressor/Tyrosine-protein kinase Lck (Homo sapiens), sequence (P06239 whole entry, looked up): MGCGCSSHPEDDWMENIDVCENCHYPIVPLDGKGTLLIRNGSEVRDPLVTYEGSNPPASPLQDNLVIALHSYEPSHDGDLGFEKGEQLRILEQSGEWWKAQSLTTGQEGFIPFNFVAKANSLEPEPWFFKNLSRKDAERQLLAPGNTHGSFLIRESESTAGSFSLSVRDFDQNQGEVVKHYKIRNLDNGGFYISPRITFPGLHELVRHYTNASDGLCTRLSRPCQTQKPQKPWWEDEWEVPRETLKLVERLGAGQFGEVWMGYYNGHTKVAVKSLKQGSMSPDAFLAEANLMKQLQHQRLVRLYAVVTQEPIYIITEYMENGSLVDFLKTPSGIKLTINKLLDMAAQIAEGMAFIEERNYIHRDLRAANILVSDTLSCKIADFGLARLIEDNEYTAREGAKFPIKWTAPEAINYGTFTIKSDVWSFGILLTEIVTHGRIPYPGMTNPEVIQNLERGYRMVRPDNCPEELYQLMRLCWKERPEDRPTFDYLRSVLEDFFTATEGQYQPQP
von Hippel-Lindau disease tumor suppressor/Tyrosine-protein kinase Lck (Homo sapiens), sequence (P40337 whole entry, looked up): as the sequence (P40337 whole entry, looked up, the tested form may be a part) above
For series [14], the system named is K562. In words: Antitumor activity against luciferse expressing human K562 cells xenografted in NOD/SCID mouse assessed as attenuation of tumor progression at 5 to 15 mg/kg, ip QD for 12 days by serial volumetric analysis. The format is functional, organism-based.
For series [15], the system named is K562. Description: Antitumor activity against luciferse expressing human K562 cells xenografted in NOD/SCID mouse assessed as reduction in tumor burden at 5 to 15 mg/kg, ip QD for 12 days by bioluminescence imaging analysis. The class given is functional, organism-based.
Series [16] concerns the target T1, von Hippel-Lindau disease tumor suppressor/Tyrosine-protein kinase ABL1/Breakpoint cluster region protein. Description: Protac activity against VHL/BCR-ABL in NOD/SCID mouse xenografted with luciferse expressing human K562 cells assessed as induction of BCR-ABL degradation at 5 to 15 mg/kg, ip QD for 4 days by Western blotting analysis. The format is functional, organism-based.
Target sequence in this assay (P00519 whole entry, looked up, the tested form may be a part): as the sequence (P00519 whole entry, looked up, the tested form may be a part) above
Target sequence in this assay (P11274 whole entry, looked up, the tested form may be a part): as the sequence (P11274 whole entry, looked up, the tested form may be a part) above
Target sequence in this assay (P40337 whole entry, looked up, the tested form may be a part): as the sequence (P40337 whole entry, looked up, the tested form may be a part) above

Series [17] deals with von Hippel-Lindau disease tumor suppressor/Tyrosine-protein kinase ABL1/Breakpoint cluster region protein (Homo sapiens), P00519+P11274+P40337 [V299L]. Description: Protac activity against VHL/BCR-ABL V299L mutant (unknown origin) expressed in human U937 cells assessed as induction of BCR-ABL degradation incubated for 16 hrs by Western blot analysis. The format is cell-based.

The test system of series [18] is von Hippel-Lindau disease tumor suppressor/Tyrosine-protein kinase ABL1/Breakpoint cluster region protein (Homo sapiens), P00519+P11274+P40337 [F317L]. In words: Protac activity against VHL/BCR-ABL F317L mutant (unknown origin) expressed in human U937 cells assessed as induction of BCR-ABL degradation incubated for 16 hrs by Western blot analysis. The class given is cell-based.

For series [19], the system named is von Hippel-Lindau disease tumor suppressor/Tyrosine-protein kinase ABL1/Breakpoint cluster region protein (Homo sapiens), P00519+P11274+P40337 [T315A]. In words: Protac activity against VHL/BCR-ABL T315A mutant (unknown origin) expressed in human U937 cells assessed as induction of BCR-ABL degradation incubated for 16 hrs by Western blot analysis. The class given is cell-based.

For series [20], the system named is von Hippel-Lindau disease tumor suppressor/Tyrosine-protein kinase ABL1/Breakpoint cluster region protein (Homo sapiens), P00519+P11274+P40337 [T315I]. Description: Protac activity against VHL/BCR-ABL T315I mutant (unknown origin) expressed in human U937 cells assessed as induction of BCR-ABL degradation incubated for 16 hrs by Western blot analysis. The class given is cell-based.

Series [21] relates to K562. In words: Induction of cell death in human K562 cells assessed as reduction in cell viability at 20 times IC50 incubated for 12 hrs followed by drug wash-out and incubation in drug-free medium up to 144 hrs by CCK8 assay. The format is functional, cell-based.

Calls of active or inactive are those of the source. The rule behind the calls is not given here.

`Cc1nc(Nc2ncc(C(=O)Nc3c(C)cccc3Cl)s2)cc(N2CCN(C(=O)CCCCCCC(=O)N[C@H](C(=O)N3C[C@H](O)C[C@H]3C(=O)NCc3ccc(-c4scnc4C)cc3)C(C)(C)C)CC2)n1`: the Activity entry in series [1] was “Dose-dependent effect”; in the series on K562 [3] it was “Non-Toxic”; in series [6], “Dose-dependent effect”; in series [8], “Dose-dependent effect”; in series [9], “Dose-dependent effect”; in series [10] it was “Dose-dependent effect”. The Activity entry (in series [11]; in series [12]; in the series with K562 [14]; in series [16]; in series [17]; in series [18]) was “Dose-dependent effect” each time. For the same compound, the DC50 in [1] amounted to 8.5 nM. Also, the inhibition result in series [2] was “Active”. For the same compound, the “growth inhibition (GI)” value in the series with U-937 is “inactive”. Moreover, the outcome in series [4], in series [5], in series [13], in [19] and in series [20] was inactive. Moreover, the outcome (in series [7]; in the series with K562 [15]; in the series on K562 [21]) was Active.

For the origin of these results see ChEMBL document CHEMBL4414590, “Discovery of SIAIS178 as an Effective BCR-ABL Degrader by Recruiting Von Hippel-Lindau (VHL) E3 Ubiquitin Ligase” (J Med Chem, 2019).
